Results published in US20020159980A1, “Benomyl tolerant fusarium lateritium and uses thereof” (priority 2001, published 2002).

Tests used:
E. lata = experiment: Grapevine bioassays in the presence of benomyl: E. lata colonization; assay type: cell-based, Eutypa lata; conditions: 26° C., 10 days; for E. lata colonization: treatment E. lata alone
Protocol: Bioassays were also completed to evaluate the tolerance of the BR F. lateritium strain and E. lata to benomyl when applied to grapevine segments. Benomyl concentrations tested included 0, 10, 100 and 1000 μg/ml at 50 μl aliquots per segment. Bioassays were inoculated with 20 μl aliquots of broth from 4 to 5 day old shake flask cultures of BR F. lateritium and E. lata. The F. lateritium shake flask cultures yielded approximately 4.5×10^5 cells/ml. Segments were inoculated first with benomyl and then with E. lata and BR F. lateritium. All inoculations were completed within one hour in a laminar flow hood. These bioassays were incubated at 26° C. for 10 days.
After incubation, segments were removed from the water agar, split in half and surface disinfected for ½ hour in a 2.5% sodium hypochlorite solution. The split segments were plated on PDA and monitored for E. lata presence after 5 days. All bioassays were performed in triplicate. Positive and negative controls were performed for each bioassay. Mean percent infection levels and standard errors about the mean were calculated for each treatment.

[1] = tested on: F. lateritium and E. armeniacae; conditions: reported by Carter et al.; cited from earlier work

Question: With CCCCNC(=O)n1c(NC(=O)OC)nc2ccccc21 [benomyl, 1-(butylcarbomyl)-2-benzimidazole carbamate] as the compound, how does the “benomyl concentration applied to the segments at which E. lata did not colonize” value (E. lata; grapevine segments) read?
Answer: The value was “exceeded 100 μg/ml”.

Question: What about the E. lata colonization (E. lata; benomyl 10 μg/ml) of the same compound?
Answer: The E. lata colonization was 100%.

Question: What about the E. lata colonization (E. lata; benomyl 100 μg/ml) of the same compound?
Answer: The E. lata colonization was 90%.

Question: And the E. lata colonization (E. lata; benomyl 1000 μg/ml)?
Answer: The E. lata colonization was 0%.

Question: And the “differential sensitivities of F. lateritium and E. armeniacae to benomyl” value [1]?
Answer: The value was “approximately 10 fold”.
